Data taken from patent US20220409692A1, “Systems Chemico-Pharmacology Drugs and Methods of Use” (The Medical College of Wisconsin, priority 2019, published 2022).

Columns and labels:
MPO = biological target: T1, MPO (Homo sapiens, UniProt P05164); assay: KYC/AA(n) peptide inhibition of MPO HOCl production (TMB assay) at varied pH; format: biochemical; conditions: regardless of pH
T1 sequence (P05164 49-745): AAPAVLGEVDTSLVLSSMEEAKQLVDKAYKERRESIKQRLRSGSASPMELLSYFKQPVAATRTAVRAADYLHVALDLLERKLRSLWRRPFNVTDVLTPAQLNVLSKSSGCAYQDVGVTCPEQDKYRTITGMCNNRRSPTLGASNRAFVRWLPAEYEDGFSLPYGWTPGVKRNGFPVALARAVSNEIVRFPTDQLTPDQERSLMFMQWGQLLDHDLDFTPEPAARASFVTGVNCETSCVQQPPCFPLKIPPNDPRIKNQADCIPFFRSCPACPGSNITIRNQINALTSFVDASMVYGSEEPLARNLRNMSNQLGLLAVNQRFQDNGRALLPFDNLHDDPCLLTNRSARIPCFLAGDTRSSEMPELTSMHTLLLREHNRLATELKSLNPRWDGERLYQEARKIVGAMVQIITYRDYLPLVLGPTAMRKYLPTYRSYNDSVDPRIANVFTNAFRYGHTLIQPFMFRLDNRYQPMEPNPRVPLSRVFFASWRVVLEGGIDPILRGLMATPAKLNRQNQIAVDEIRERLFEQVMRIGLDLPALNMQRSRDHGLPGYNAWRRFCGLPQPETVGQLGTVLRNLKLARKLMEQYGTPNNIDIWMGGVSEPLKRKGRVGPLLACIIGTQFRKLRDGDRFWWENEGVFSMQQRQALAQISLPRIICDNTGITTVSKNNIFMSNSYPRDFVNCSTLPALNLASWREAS
Description: Small peptides of generic formula AA(n) (where AA represents different amino acids, and n can be 2-5) are both substrates and inhibitors of MPO (alternatively, inhibitors of EPO). These peptides are […] at the active site of MPO, which subsequently decreases the production of toxic oxidants that includes but not restricted to hypochlorous acid. All MPO activities (i.e., hypochlorous acid production) described herein were quantified by the 3,3′,5,5′-tetramethylbenzidine (TMB) assay. […] The free radical itself may act as an activated species, and is stable enough to react with proximal proteins, peptides, metabolites or small molecules to effect further change. The free radical is not limited to a single target, but may effect change multiple independent targets. In a non-limiting example, the free radical goes on to form a hetero- or homo dimer via an oxidized —S—S— disulfide (or di-Selenium) linkage. Finally, the more interactions between the peptide and active site of MPO that occurs the lower numerical IC50 value of the peptide inhibitor.
KYZ is […] in the presence of MPO, which subsequently decreases the production of hypochlorous acid. All MPO activities (i.e., hypochlorous acid production) were quantified by the 3,3′,5,5′-tetramethylbenzidine (TMB) assay. The tripeptide KXZ, requires amino acid #1 (AA1, K) to be a native amino acid or an artificial amino acid (aa) with a basic side-chain such as an amine functional group (e.g., Lysine (K)). Amino acid #2 (AA2, X) is a native or artificial amino acid that may contain a polar, non-polar, or aromatic amino acid.

RLMVEC = assay: KYC thiylation of endothelial cell proteins in RLMVEC cultures; format: cell-based, rat
Description: FIG. 29. Effects of Oxidative Stress on KYC Thiylation of RLMVEC Proteins. (A) Streptavidin affinity blot of KYC thiylated proteins from cell lysates prepared from RLMVEC cultures treated with B-KYC (baseline), B-KYC+MPO+H2O2 (MPO-dependent), and B-KYC+H2O2 (H2O2-dependent). (B) Immunoblot for Nrf2 in RLMVEC cultures treated as described in A. (C) Immunoblot for Keap1 in RLMVEC cultures treated as described in A. (D) Immunoblot for HMGB1 in RLMVEC cultures treated as described in A.(E) Immunoblot for β-Actin in RLMVEC cultures treated as described in A.(F) Bar chart showing relative levels of KYC thiylation, Nrf2, Keap1, and HMGB1 as a function of β-Actin (n=2, *=p<0.05, statistical analysis was preformed by ANOVA with appropriate post hoc tests).
FIG. 31. MPO Oxidation of KYC Increases KYC Thiylation of Extracellular HMGB1. […] This conclusion is based on the relative levels of KYC thiylated HMGB1 in panel A vs. KYC thiylated HMGB1 as a function of HMGB1 protein in conditioned media vs. RLMVEC cell lysates.
Rat lung microvascular endothelial cells (RLMVEC) from neonatal Sprague-Dawley rats (RN-6011) and rat endothelial growth medium (EGM, M1266SF) were from Cell Biologics (Chicago, Ill.). Amicon®Ultra-4 centrifugal concentrators with 3K cut-off (UFC800324) were from Merck Millipore Ltd (Carrigtwohill, Ireland). PierceTM Streptavidin (#88816), Protein G (#88848), Protein A Magnetic Beads (#88845), PierceTM ECL Western Blotting Substrate (#32106), and SuperSignalTM West Femto Maximum Sensitivity Substrate (#34095) were from Thermo Fisher Scientific (Waltham, MA). Rabbit antibodies for myeloperoxidase heavy chain (MPO, sc-33596) and TLR4 (sc-10741) were from Santa Cruz Biotechnology (Dallas, Texas). Rabbit antibody for Cl-Tyr (HP5002) was from Hycult Biotech (Plymouth Meeting, PA). The chicken antibody for HMGB1 (326052233) was from SHINO-TEST Corporation (Kanagawa, Japan). Rabbit antibody for RAGE (GTX23611) was from GeneTex (Irvine, CA). Mouse antibodies for PECAM-1/CD31 (ab24590), for 8-OH-dG (ab48508), and for rat endothelial cell antigen-1 (RECA-1, ab9774) were from Abcam (Cambridge, MA). Rabbit antibody for Cox1 (sc-7950) and Cox2 (sc-7951) were from Santa Cruz Biotechnology. Mouse (ab190377) and rabbit (ab77302b) antibodies for HMGB1, and streptavidin-HRP (ab7403) were from Abcam (Cambridge, Mass.). Rabbit antibody for acetylated-HMGB1 (OASG03545) was from Aviva System Biology (San Diego, Calif.). Rabbit antibodies for Nrf2 (sc-722) and TLR4 (sc-30002) were from Santa Cruz Biotechnology (Dallas, Tex.). Rabbit antibody against Keap1 (ABS97) and mouse antibody for β-actin (A2228) were from Millipore-Sigma (St. Louis, Mo.). Rabbit antibody for cysteine sulfonyl (ADI-OSA-820) was from Enzo Life Sciences (Farmingdale, N.Y.). Mouse antibody for glutathionylated proteins (D8) and all other chemicals were from Sigma-Aldrich (St. Louis, Mo.). All antibodies were certified either by the manufacturer or were used previously and certified by the authors, as was the case for the anti-HMGB1 antibody.
Effects of Oxidative Stress on KYC Thiylation on Endothelial Cell Proteins in RLMVEC Cultures: To determine the effects of oxidative stress on KYC thiylation, RLMVEC cultures were treated with B-KYC to follow KYC thiylation with streptavidin-affinity blotting as outlined in Methods. Three different levels of oxidative stress were used to determine the effects of oxidative stress on KYC thiylation of endothelial cell proteins: media alone (baseline); media containing MPO+H2O2 (MPO-dependent); and media containing H2O2 alone (H2O2-dependent) (FIG. 29A). KYC thiylation of RLMVEC proteins at baseline was low (FIG. 29A, first two lanes).

HMGB1 = biological target: T2, HMGB1 (Homo sapiens, UniProt P09429); assay: Streptavidin-affinity blot of B-KYC thiylated recombinant HMGB1 and MPO in MPO reaction mixture; format: biochemical; conditions: split sample, DTT 100 mM
T2 sequence (P09429 1-215): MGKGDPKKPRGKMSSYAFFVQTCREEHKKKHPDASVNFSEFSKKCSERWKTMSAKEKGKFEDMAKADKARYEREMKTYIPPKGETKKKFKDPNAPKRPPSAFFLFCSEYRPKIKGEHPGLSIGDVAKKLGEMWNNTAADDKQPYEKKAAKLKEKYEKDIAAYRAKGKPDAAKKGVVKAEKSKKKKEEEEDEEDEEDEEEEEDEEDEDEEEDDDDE
Experimental: FIG. 30. MPO Oxidizes KYC to a KYC Thiyl Radical That Thiylates HMGB1. (A) ESR spectrum of KYC thiyl S°-DMPO generated by an MPO reaction mixture containing MPO (120 nM), H2O2 (50 μM) and KYC (30 μM). (B) Streptavidin-affinity blot of KYC thiylated HMGB1 and MPO in a split sample, one half treated neat and other half treated with DTT (100 mM) to reduce disulfide bonds.
This spectrum is similar to the spectrum of DMPO-S◯-YC generated when the dipeptide YC was added to an MPO reaction mixture containing DMPO [34].
Previously we reported that KYC reduced MPO-dependent oxidative damage because KYC competes with native substrates, such as chloride and nitrite, that are oxidized to “toxic” oxidants. In 2013, we argued that KYC reduced MPO-dependent oxidative damage because the resultant KYC thiyl radical would autoscavenge to prevent radical propagation. […] To determine the radical mechanisms mediating MPO oxidation of KYC and KYC thiylation of HMGB1, we performed two experiments. In the first experiment, we trapped KYC thiyl radicals generated by MPO with DMPO (FIG. 30A), which confirms our conclusions in 2013 [27]. In the second experiment, we added recombinant HMGB1 to PBS containing MPO+H2O2+B-KYC and determined KYC thiylation by streptavidin affinity blotting. […]

Substance | inhibitory properties (IC50) KVC versus KVVC (MPO) | KYC thiylation of RLMVEC proteins (RLMVEC; H2O2-dependent (media containing H2O2 alone)) | KYC thiylation of RLMVEC proteins (RLMVEC; MPO-dependent (media containing MPO+H2O2)) | KYC thiylation of RLMVEC proteins (RLMVEC; baseline (media alone)) | fluorescent band density of B-KYC thiylated HMGB1 and MPO (HMGB1)
Ac-KVVC-amide [N-acetylated, C-amidated AA(n) peptide, KVC with an added amino acid] | improvement of inhibitory properties |  |  |  | 
biotin-aminohexanoyl-N-[Ahx]-KYC-amide [B-KYC] |  | more than observed at baseline, but not as high as MPO-dependent B-KYC thiylation | markedly increased | low | decreased in the sample treated with dithiothreitol
